These results are taken from ChEMBL document CHEMBL1136403, “Synthesis and biological evaluation of some novel 4'-thio-L-ribonucleosides with modified nucleobase moieties” (Bioorg Med Chem Lett, 2003).

For one assay, the system named is C6. Kind of assay: In vitro cytotoxicity against C6 rat glioma cell line. The class given is functional, cell-based.
For the next assay, the system named is U-87 MG. As to the kind of experiment: In vitro cytotoxicity against HTB14 human glioma cell line. It is filed as functional, cell-based, U-87MG ATCC.
Another assay relates to HeLa. Kind of assay: In vitro cytotoxicity against HeLa human cervical carcinoma cell line. The class given is functional, cell-based.
The next assay has as its system NHDF. Kind of assay: In vitro cytotoxicity against normal human dermal fibroblast (NHDF) cell line. It is filed as functional, cell-based.
Assay [1] has as its system NB-4. Kind of assay: In vitro cytotoxicity against NB4 leukemia cell line. The class given is functional, cell-based. To be noted: Homo sapiens.
In assay [2] the test system is T47D. Kind of assay: In vitro cytotoxicity against T47D breast cancer cell line. It is filed as functional, cell-based. To be noted: Homo sapiens.
Assay [3] has as its system NB-4. As to the kind of experiment: Growth stimulating activity against NB4 leukemia cell line; growth stimulatory activity is observed. The class given is functional, cell-based, Homo sapiens.
Assay [4] relates to T47D. As to the kind of experiment: Growth stimulating activity against T47D breast cancer cell line; growth stimulatory activity is observed. The class given is functional, cell-based, Homo sapiens.

Broadly, the IC50 is the concentration that inhibits the measured activity by half. A high value points to a need for much substance. For `O=c1[nH]c(=O)n([C@H]2S[C@@H](CO)[C@H](O)[C@@H]2O)cc1F`, the IC50 is more than 100 µM in the assay with C6; 41.5 µM in the assay with U-87 MG; more than 100 µM with HeLa; more than 100 µM with NHDF; more than 100 µM in the assay with NB-4 [1]; more than 100 µM in the assay on T47D [2].

As for `Cc1cn([C@H]2S[C@@H](CO)[C@H](O)[C@@H]2O)c(=O)[nH]c1=O`, the IC50 in the assay with C6 was more than 100 µM; in the assay on U-87 MG it was 67.8 µM; in the assay with HeLa, 100 µM; in the assay on NHDF it was more than 100 µM; in the assay on NB-4 [1], more than 100 µM; with T47D [2], more than 100 µM.

In the case of `Nc1nc(=O)n([C@H]2S[C@@H](CO)[C@H](O)[C@@H]2O)cc1F`, the IC50 in the assay with C6 is more than 100 µM; in the assay on U-87 MG it was 83.3 µM; in the assay on HeLa, 95.9 µM; with NHDF, more than 100 µM; in the assay on NB-4 [3], “Growth-stimulatory activity”; with T47D [4], “Growth-stimulatory activity”.

As to `Nc1nc(S)c2ncn([C@H]3S[C@@H](CO)[C@H](O)[C@@H]3O)c2n1`, the IC50 with C6 was more than 100 µM; with U-87 MG it was 62.1 µM; in the assay with HeLa it was more than 100 µM; in the assay on NHDF, more than 100 µM; in the assay with NB-4 [1], more than 100 µM; in the assay on T47D [4], “Growth-stimulatory activity”.
